Reference: patent US5532240A, “Condensed thiophene compound and pharmaceutical use thereof” (Yoshitomi Pharmaceutical Industries, Ltd., priority 1991, dated 1996)

Experiments:
[1] = target: T1, serotonin 1A (5-HT1A) receptor (Rattus norvegicus, UniProt P19327); test: Affinity for serotonin 1A receptor (tritiated 8-OH-DPAT binding); parameters: species or system Wistar rats; conditions: rat hippocampus crude synaptosomes; [3H]8-OH-DPAT 0.2 nM; 37° C., 12 min
T1 construct: A crude synaptosome fraction was separated from hippocampus; from tissue; host or cells: hippocampus of 9-10 week-old Wistar rats, crude synaptosome fraction
T1 sequence (P19327 1-422): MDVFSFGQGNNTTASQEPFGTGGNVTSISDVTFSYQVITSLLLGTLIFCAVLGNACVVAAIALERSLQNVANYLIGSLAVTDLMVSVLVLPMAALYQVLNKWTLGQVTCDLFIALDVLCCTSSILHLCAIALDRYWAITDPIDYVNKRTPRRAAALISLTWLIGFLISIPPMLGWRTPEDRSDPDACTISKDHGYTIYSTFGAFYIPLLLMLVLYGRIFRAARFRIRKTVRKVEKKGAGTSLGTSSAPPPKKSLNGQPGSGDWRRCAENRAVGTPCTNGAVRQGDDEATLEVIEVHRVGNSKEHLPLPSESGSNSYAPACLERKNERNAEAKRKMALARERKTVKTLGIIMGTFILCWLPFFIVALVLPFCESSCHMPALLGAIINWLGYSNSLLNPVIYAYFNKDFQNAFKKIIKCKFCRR
Protocol: Affinity for serotonin 1A receptor
A specific binding of serotonin 1A (5-HT1A) receptor was tested according to the method described in J. Neurochem. 44, 1685 (1985).
(§1) A crude synaptosome fraction was separated from hippocampus of 9-10 week-old Wistar rats, and suspended in 50 mM Tris-HCl buffer (pH 7.4) containing 1 mM manganese chloride for the experiment. The test compound at several concentrations and tritiated 8-hydroxy-2-dipropyl-aminotetralin(8-OH-DPAT, final concentration 0.2 nM) were added to the synaptosome suspension, and each mixture was incubated at 37° C. for 12 minutes. After the incubation, the mixture was filtered with suction through Whatman GF/B (trade mark) glass filter. The filter was washed with 50 mM Tris-HCl buffer (pH 7.7), and the radioactivity of the filter was measured by a liquid scintillation counter. Non-specific binding was determined in the presence of 10^-5 M serotonin (5-HT). The concentration necessary for 50% inhibition (IC50) was determined on a graph, and inhibition constant (Ki value) was calculated.

[2] = test system: ergometrine-induced head-twitches; test: Anti-ergometrine action (head-twitch); type: in vivo, male ddY mice; conditions: Mus musculus; oral, 60 min before 20 mg/kg i.p. ergometrine maleate; head-twitch vanished, Probit
Protocol: Male ddY mice at 12 per group were used for the experiment. The test compound was orally administered to the mice, and 60 minutes later, 20 mg/kg of ergometrine maleate was intraperitoneally administered. The amount of the test compound necessary to vanish the head-twitch reaction for 10 minutes from immediately after the administration of ergometrine maleate was calculated as ED50 value by Probit method.

[3] = target: T2, serotonin 2 (5-HT2) receptor (Rattus norvegicus, UniProt P14842); test: Affinity for serotonin 2 receptor (tritiated ketanserin binding); parameters: species or system Wistar rats; conditions: rat hippocampus crude synaptosomes; [3H]ketanserin 0.2 nM; 37° C., 20 min
T2 construct: A crude synaptosome fraction was separated from hippocampus; from tissue; host or cells: hippocampus of 9-10 week-old Wistar rats, crude synaptosome fraction
T2 sequence (P14842 whole entry): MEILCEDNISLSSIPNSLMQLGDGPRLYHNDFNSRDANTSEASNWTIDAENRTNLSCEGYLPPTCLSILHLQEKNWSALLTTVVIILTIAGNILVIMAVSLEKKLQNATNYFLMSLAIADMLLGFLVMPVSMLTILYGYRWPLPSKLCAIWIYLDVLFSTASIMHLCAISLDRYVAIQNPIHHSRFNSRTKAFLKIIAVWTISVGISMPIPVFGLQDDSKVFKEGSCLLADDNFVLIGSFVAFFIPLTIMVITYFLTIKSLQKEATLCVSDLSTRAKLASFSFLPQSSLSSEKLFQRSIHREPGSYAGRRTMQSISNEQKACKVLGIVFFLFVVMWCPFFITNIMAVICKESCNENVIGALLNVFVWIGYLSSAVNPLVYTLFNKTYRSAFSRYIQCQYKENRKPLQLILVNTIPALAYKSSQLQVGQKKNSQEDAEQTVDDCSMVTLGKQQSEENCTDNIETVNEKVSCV
Protocol: Affinity for serotonin 2 receptor
A specific binding of serotonin 2 (5-HT2) receptor was tested according to the method described in Mol. Pharmacol. 21, 301 (1981).
as §1, with “7.7)” for “7.4) containing 1 mM manganese chloride”, “concentration” for “concentrations”, “ketanserin (final” for “8-hydroxy-2-dipropyl-aminotetralin(8-OH-DPAT, final”, “20” for “12”, “mianserin.” for “serotonin (5-HT).”, “value )” for “value)”

dopamine 2 (D2) receptor = target: T3, dopamine 2 (D2) receptor (Rattus norvegicus, UniProt P61169); test: Affinity for dopamine 2 receptor (tritiated spiperone binding); parameters: species or system Wistar rats; conditions: rat corpus striatum synaptosomes; [3H]spiperone 0.2 nM; 37° C., 20 min
T3 construct: A synaptosome fraction was separated from corpus striatum; from tissue; host or cells: corpus striatum of 9-10 week-old Wistar rats, synaptosome fraction
T3 sequence (P61169 whole entry): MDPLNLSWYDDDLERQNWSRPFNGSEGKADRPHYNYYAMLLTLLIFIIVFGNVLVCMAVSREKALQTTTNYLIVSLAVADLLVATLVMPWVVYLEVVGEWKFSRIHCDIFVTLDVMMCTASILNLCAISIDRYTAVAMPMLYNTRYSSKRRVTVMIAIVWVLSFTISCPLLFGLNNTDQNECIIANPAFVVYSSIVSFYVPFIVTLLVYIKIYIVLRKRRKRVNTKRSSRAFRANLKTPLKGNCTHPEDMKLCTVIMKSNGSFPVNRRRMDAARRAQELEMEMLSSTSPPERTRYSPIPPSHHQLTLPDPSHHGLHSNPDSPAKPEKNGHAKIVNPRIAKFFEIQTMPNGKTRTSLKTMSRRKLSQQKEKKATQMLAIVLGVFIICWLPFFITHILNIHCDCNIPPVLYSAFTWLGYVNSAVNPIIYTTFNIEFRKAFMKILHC
Protocol: Affinity for dopamine 2 receptor
A specific binding of dopamine 2 (D2) receptor was tested according to the method described in Eur. J. Pharmacol. 46, 377 (1977).
A synaptosome fraction was separated from corpus striatum of 9-10 week-old Wistar rats, and suspended in 50 mM Tris-HCl buffer (pH 7.1) containing 120 mM sodium chloride, 5 mM potassium chloride, 2 mM calcium chloride, 1 mM magnesium chloride, 10 μM pargyline and 0.1% ascorbic acid for the experiment.
as §1, with “The” for “A crude synaptosome fraction was separated from hippocampus of 9-10 week-old Wistar rats, and suspended in 50 mM Tris-HCl buffer (pH 7.4) containing 1 mM manganese chloride for the experiment. The”, “spiperone (final” for “8-hydroxy-2-dipropyl-aminotetralin(8-OH-DPAT, final”, “20” for “12”, “10^-4” for “10^-5”, “(±)-sulpiride.” for “serotonin (5-HT).”

Acute toxicity = conditions: mouse, in vivo; oral, male ddY mice, observed 5 days; read-out: LD50 (50% lethal dose)
Description: Male ddY mice weighing 20-28 g were used at 10 per group. They were orally administered with the compound of Example 24 and observed for 5 days after the administration.

[4] = test system: apomorphine-induced hyperactivity; test: Anti-apomorphine action (in mouse); type: in vivo, male dd mice; conditions: oral, 60 min before 0.5 mg/kg s.c. apomorphine hydrochloride, movement lowered by 50%
Protocol: Anti-apomorphine action (in mouse)
Male dd mice at 3 per group were used for the experiment. The test compound was orally administered to the mice, and 60 minutes later, 0.5 mg/kg of apomorphine hydrochloride was subcutaneously administered. the movement for 20 minutes from immediately after the administration of apomorphine hydrochloride was measured using Valimex (Columbus, USA). Each group was tested four times, and the amount of the test compound necessary to lower the movement by 50% than that of a control group was calculated from a graph and taken as ED50.

[5] = test system: catalepsy induced by haloperidol; conditions: preclinical; cited from earlier work
[6] = test system: conditioned avoidance response (CAR); conditions: administered with D2 antagonist; cited from earlier work

Structure (SMILES) | Ki [1] [nM] | ED50 [2] [mg/kg] | Ki [3] [nM] | Ki (dopamine 2 (D2) receptor) [nM] | LD50 at 120 h (Acute toxicity) [mg/kg] | ED50 [4] [mg/kg] | effect on catalepsy induced by haloperidol [5] | inhibition of conditioned avoidance response (CAR) [6]
CC(=O)N1CCc2c(sc(C)c2CCN2CCC(c3noc4cc(F)ccc34)CC2)C1 [Example 24, 6-acetyl-3-(2-(4-(6-fluoro-1,2-benzisoxazol-3-yl)piperidin-1-yl)ethyl)-4,5,6,7-tetrahydro-2-methylthieno[2,3-c]pyridine] | 32 | 0.37 | 0.062 | 0.46 | 205 | 0.39 |  | 
CCCN(CCC)C1CCc2cccc(O)c2C1 (centres unmarked) [8-OH DPAT, 8-hydroxy-2-dipropyl-aminotetralin] |  |  |  |  |  |  | reverse catalepsy induced by haloperidol | inhibit conditioned avoidance response (CAR) more potent than that of D2 antagonist only
